The subject of assay [1] is nuclear chromatin decondensation in PMNs. Nature of the assay: Nuclear decondensation assay in PMA-treated neutrophils. It counts as cell-based, human. Conditions: PMA 20 nM; peptides 1 nM, Cl-amidine 10 μM, sivelestat 200 nM. How it is done: FIG. 7B is a graph depicting nuclear areas that were measured (n=4) using IMAGEJ™ software (mean nuclear pixel area per cell±SEM). Paired Student's t test, *P<0.05, § P=0.057.
FIG. 12A depicts nuclear decondensation (white arrowheads and magnified image) that were assessed as in FIGS. 7A-7E after a 1 hour preincubation in medium alone, with neutrophil elastase (NE) inhibitor sivelestat (SIVL; 200 nM), or with CRISPP or CRISPP-SCR (both 1 nM) followed by treatment with PMA (20 nM) and an additional 1 hour incubation (n=3). Green fluorescence=nuclear DNA, (60× magnification, scale bar=20 μm). Nuclear area was quantified using IMAGEJ™ software (nuclear pixel area per cell±SEM). One way ANOVA with Tukey's post hoc testing; **P<0.01, ***P<0.001.
Nuclear decondensation was identified as described (see Papayannopoulos V, et al., J Cell Biol. 2010; 191 (3):677-91). Five randomly selected high-power visual fields per sample were captured via confocal microscopy and analyzed for nuclear area using the cell-permeable, fluorescent DNA dye SYTO® Green. The nuclear pixel areas of >100 individual cells per high-power field were determined using IMAGEJ™ software (NIH).

Assay [2] concerns nuclear histone H3 citrullination. Nature of the assay: Histone H3 citrullination in PMA-activated neutrophils (immunocytochemistry). It counts as cell-based, human. Conditions: PMA 20 nM, 15 minutes; peptides 1 nM, Cl-amidine 10 μM. From the text: Green fluorescence=citrullinated-histone H3, magenta fluorescence=nuclear DNA (60× magnification; scale bar=20 μm). The right panel depicts Histone H3 citrullination that was quantified using IMAGEJ™ software (mean citrullinated-histone H3 pixel area per cell±SEM) (n=3). One way ANOVA with Tukey's post hoc testing, *P<0.05.
Imaging was accomplished via confocal microscopy using a FV1000 IX81 confocal microscope and FLUOVIEW™ software (OLYMPUS™). Semi-quantitation was accomplished using IMAGEJ™ software (NIH) to determine the average citrullinated histone H3 content per cell.

For assay [3], the system named is neutrophil extracellular trap (NET) formation. Nature of the assay: In vitro NET formation by stimulated human PMNs (live cell imaging, NET-associated histone H3 release). It counts as cell-based. Conditions: for PMA-stimulated NET deployment: PMA 20 nM, 1 hour preincubation; for PMA-stimulated NET deployment / NET formation triggered by heme: peptides 1 nM; for NET formation triggered by LPS: adult PMNs preincubated with agent, LPS 100 ng/mL, 1 hour; for NET formation triggered by heme: heme 1 μM; for relative inhibition of NETosis (order of potency): initial comparison of NRPs. How it is done:
Qualitative assessment of NET formation was performed as previously reported (see Yost C C, et al., Blood. 2009; 113 (25):6419-27 and McInturff A M, et al., Blood. 2012; 120 (15):3118-25). Briefly, primary PMNs isolated from preterm infants, healthy term infants, and healthy adults (2×10^6 cells/mL) were incubated with control buffer or stimulated with indicated agonists or bacteria for 1 hour at 37° C. in 5% CO2/95% air on glass coverslips coated with poly-L-lysine. For selected experiments, primary PMNs were pre-incubated with autologous plasma, cord blood plasma, nNIF (0.2-70 nM), CRISPP (0.2-70 nM), nNIF-SCR (1 nM), or CRISPP-SCR (1 nM) for one hour prior to stimulation. After pre-incubation and/or stimulation, PMNs were gently washed with PBS and incubated with a mixture of cell permeable (SYTO® Green, MOLECULAR PROBES®) and impermeable (SYTOX® Orange, MOLECULAR PROBES®) DNA fluorescent dyes. Confocal microscopy was accomplished using a FV1000 IX81 confocal microscope and FLUOVIEW™ software (OLYMPUS™). Both 20× and 60× objectives were used. Z-series images were obtained at a step size of 1 μm over a range of 20 μm for each field. FLUOVIEW™ and ADOBE™ PHOTOSHOP™ CS2 software was used for image processing.
Using BSL 2 safety protocols, primary PMNs isolated from healthy adults (2×10^6 cells/mL) were incubated with mock infection buffer or live dengue virus (M010.05) as for live cell imaging. After a 1-hour incubation, the infected PMNs were fixed with 2% p-FA for 10 minutes prior to incubation with fluorescently-labeled, cell-permeable and cell-impermeable DNA dyes, and imaged as for live cell imaging using confocal microscopy.
NET-associated histone H3 content was determined as previously described (see McInturff A M, et al., Blood. 2012; 120 (15):3118-25). After live cell imaging of control and stimulated primary PMNs (2×10^6/mL; various agonists), the cells were incubated with PBS containing DNase (40 U/mL) for 15 minutes at room temperature to break down and release NETs formed in response to stimulation. The supernatant was gently removed and centrifuged at 420×g for 5 minutes. The cell-free supernatant was then mixed 3:1 with 4× Laemmli buffer prior to western blotting. A polyclonal primary antibody against human histone H3 protein (CELL SIGNALING®) and infrared-conjugated secondary antibodies (LI-COR®) were used. Imaging and densitometry were performed on the ODYSSEY® infrared imaging system)(LI-COR®). This assay was previously validated as a surrogate for NET formation under in vitro conditions (see McInturff A M, et al., Blood. 2012; 120 (15):3118-25) as employed in the present studies.
(§1) Without being bound by any specific theory, it was hypothesized that placentally expressed HTRA1, a serine protease, regulates the formation of NET-inhibitory peptides through cleavage of AAT. To test this hypothesis, term and preterm placenta were assessed for HTRA1 expression via western blotting. HTRA1 and AAT plasma expression from term and preterm infants and adults were determined by ELISA. Bioactive (0.5 μg) or placental eluted HTRA1 was incubated with AAT (8 μM) for 18 hours at 37° C. Carboxy-terminus fragments of AAT were detected using western blotting and mass spectrometry. The reaction products were incubated for 1 hour with PMNs isolated from healthy adults prior to LPS stimulation (100 ng/mL) and assessed for NET formation using live cell imaging. Reactive oxygen species were assessed using flow cytometry, chemotaxis using a modified Boyden chamber assay, and bacterial killing using E. coli.

The test system of the next assay is PMN chemotaxis. The assay can be described thus: IL-8 induced chemotaxis, modified Boyden chamber. It counts as cell-based, human. Conditions: IL-8 2 ng/mL, peptides 1 nM. How it is done:
FIG. 6D is a graph depicting chemotaxis in response to IL-8 (2 ng/mL) that was examined in a Boyden chamber assay. The dashed line indicates the response to IL-8 alone arbitrarily set at 1.
Chemotaxis by PMNs isolated from healthy adult donors was assessed using a modified Boyden chamber assay ± a 1 hour pre-incubation with nNIF (1 nM), CRISPP (1 nM), or CRISPP-SCR (1 nM). Recombinant human IL-8 (2 ng/mL) was used as the chemoattractant. Chemotaxis through a 5 micron filter was determined by counting PMNs in 10 randomly selected high-power fields as previously described (see Hill H R, et al., Lancet. 1974; 2 (7881):617-9). In separate experiments, nNIF, CRISPP, or CRISPP-SCR (all at 1 nM) were evaluated for chemoattractant activity using the same system.
as §1, with “Bioactive (0.5 μg) or placental eluted HTRA1 was incubated with AAT (8 μM) for 18 hours at 37° C.” left out, “The reaction products were incubated for 1 hour with PMNs isolated from healthy adults prior to LPS stimulation (100 ng/mL) and assessed for NET formation using live cell imaging.” left out

Entries after “also recorded” stand apart in the source; their conditions may differ.

In the case of “KFNKPFVFLMIEQNTKSPLFMGKVVNPTQ (listed as Homo sapiens) [nNIF]”, the “nuclear decondensation (number of decondensed nuclei)” value in assay [1] was “dramatically reduced”. Moreover, in assay [2], the “nuclear histone H3 citrullination” value is on record as “inhibited”. For the same substance, in assay [3], the “PMA-stimulated NET deployment” value is given as “blocked”, the “NET formation triggered by LPS” value is reported as “potent NET-inhibitory activity; also recorded: inhibits NET formation; also recorded: inhibited LPS-stimulated NET deployment; also recorded: inhibit NET formation at nanomolar concentrations”, the “NET formation triggered by heme” value is “inhibit” and the “relative inhibition of NETosis (order of potency)” value is listed as “nNIF ≈CRISPP>A1ATm^358”. The IL-8 induced chemotaxis result in the assay on PMN chemotaxis is on record as “did not inhibit”.

“M_IPPEVKFNKPFVFLMIDQNTKVPLFMGK [CRISPP, consensus peptide based on factors present in the blood of patients with cancer]”: the “nuclear decondensation (number of decondensed nuclei)” value in assay [1] is on record as “dramatically reduced”. Besides, in assay [2], the “nuclear histone H3 citrullination” value is given as “inhibited”. Besides, in assay [3], the “PMA-stimulated NET deployment” value is listed as “blocked”, the “NET formation triggered by LPS” value is “inhibits NET formation; also recorded: inhibited LPS-stimulated NET deployment; also recorded: inhibit NET formation at nanomolar concentrations”, the “NET formation triggered by heme” value is listed as “inhibit” and the “relative inhibition of NETosis (order of potency)” value is “nNIF ≈CRISPP>A1ATm^358”. For the same substance, in assay [3] (S. aureus MOI 100:1, peptide 1 nM), the “NET formation induced by live Staphylococcus aureus” value was “inhibited”. The “NET generation stimulated by dengue virus” value in assay [3] (dengue virus MOI 0.05:1, peptide 1 nM) is listed as “inhibited”. In addition, the IL-8 induced chemotaxis entry in the assay with PMN chemotaxis is on record as “did not inhibit”.
